One experiment concerns tryptophan hydroxylase. Description: Inhibition of the depolarisation induction of tryptophan hydroxylase in rat brainstem slices. It counts as cell-based. The conditions noted are these: 37° C., from concentration response curves, read-out: IC50, concentration causing 50 percent inhibition of the depolarisation induction of tryptophan hydroxylase. The procedure: The activity of the compounds as inhibitors of the depolarisation induction of tryptophan hydroxylase can be assessed by determining the IC50 in rat brainstem slices as described by Margaret C. Boadle-Biber, Biochemical Pharmacology 27 1069 (1978). The IC50 values are derived from concentration response curves as the concentration causing 50 percent inhibition of the depolarisation induction at 37° C. As an illustration the IC50 of d,l 3-(3'-methoxyphenyl)-3-(3"-N,N-dimethylaminopropyl)-4,4-dimethyl-2,6-dioxopiperidine hydrochloride is 10 μM.

A further experiment relates to 5-HT transmission. Briefly: Fenfluramine-induced hyperthermia in rats (reduction of 5-HT transmission in vivo). The note with it: four day chronic pretreatment, 10 mg/kg ip. twice daily, fenfluramine 7.5 mg/kg ip. How it is done:
The activity of the compounds to reduce 5-HT transmission can be assessed in vivo by measuring their effect on the hyperthermia induced by an intraperitoneal injection of fenfluramine (see A. Sulpizio et al, Life Sciences 22 1439 (1978). As an illustration a four day chronic pretreatment of rats with 3-(3'-methoxyphenyl)-3-(3"-N,N dimethylaminopropyl) 4,4-dimethyl-2,6-dioxopiperidine hydrochloride at a dose level of 10 mg/kg ip. twice daily produced a 50 percent reduction in the hyperthermia induced by fenfluramine administered at a dose level of 7.5 mg/kg ip.

Structures can show the parent of a compound that is named as a salt.

Turning to `COc1cccc(C2(CCCN(C)C)C(=O)NC(=O)CC2(C)C)c1` (racemic) [Example 1, 3-(3'-Methoxyphenyl-3-(3"-N,N-dimethylaminopropyl)-4,4-dimethyl-2,6-dioxopiperidine hydrochloride], in the experiment with tryptophan hydroxylase, the IC50 came out at 10 µM. For the same compound, the “reduction in the hyperthermia induced by fenfluramine” value in the experiment on 5-HT transmission is on record as 50%.

Values taken from US4461771A, “Treatment of migraine with dioxopiperidine derivatives” (priority 1983, dated 1984).
